The results in this text go back to patent publication US20120270237A9, “METHODS FOR THE IDENTIFICATION OF KINASE INTERACTING MOLECULES AND FOR THE PURIFICATION OF KINASE PROTEINS” (Cellzone AG, priority 2009, published 2012).

Common to all, as to assay: Kinobeads competition binding, HeLa Placenta lysate mix
What all share (design): endogenous in cells
Conditions in all cases: 10 μM free compound

One assay concerns the target T1, MAP3K2 (Homo sapiens, UniProt Q9Y2U5).
T1 sequence (Q9Y2U5 1-619): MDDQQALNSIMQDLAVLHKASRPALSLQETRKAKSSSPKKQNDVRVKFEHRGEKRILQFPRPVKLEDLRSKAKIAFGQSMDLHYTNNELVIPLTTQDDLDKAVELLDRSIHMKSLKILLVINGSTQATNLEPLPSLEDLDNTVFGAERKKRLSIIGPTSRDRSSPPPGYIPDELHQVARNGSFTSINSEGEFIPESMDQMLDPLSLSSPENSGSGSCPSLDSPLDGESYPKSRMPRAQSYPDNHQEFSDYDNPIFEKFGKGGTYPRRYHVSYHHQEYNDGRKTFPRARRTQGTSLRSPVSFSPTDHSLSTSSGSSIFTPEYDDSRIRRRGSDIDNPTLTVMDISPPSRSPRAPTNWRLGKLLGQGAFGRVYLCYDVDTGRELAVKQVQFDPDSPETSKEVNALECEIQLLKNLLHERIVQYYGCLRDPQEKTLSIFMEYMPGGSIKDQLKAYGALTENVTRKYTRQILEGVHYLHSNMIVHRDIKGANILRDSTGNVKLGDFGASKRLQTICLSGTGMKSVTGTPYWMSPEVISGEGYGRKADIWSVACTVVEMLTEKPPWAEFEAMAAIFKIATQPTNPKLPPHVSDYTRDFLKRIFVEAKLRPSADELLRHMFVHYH
As to the method: (§1) To one aliquot of cell lysate 10 μM of the free compound (FIG. 3, CZC31326) was added and allowed to bind to proteins in the lysate. Then the affinity matrix with the immobilized compound was added to capture proteins that were not interacting with the previously added free compound. Beads were separated from the lysate and bead bound proteins were eluted in SDS sample buffer and subsequently separated by SDS-Polyacrylamide gel electrophoresis (FIG. 10). Suitable gel bands were cut out and subjected to in-gel proteolytic digestion with trypsin. The second lysate aliquot was processed identically, however no free compound was added (DMSO solvent control). Peptides originating from samples 1 and 2 were labeled with iTRAQ reagents (iTRAQ 114 and iTRAQ 117) and the combined samples were analyzed with a nano-flow liquid chromatography system coupled online to a tandem mass spectrometer (LC-MS/MS) experiment followed by iTRAQ reporter ion quantification in the MS/MS spectra as described in Example 2.

The next assay concerns the target CaMK2g (Homo sapiens, UniProt Q13555). As to the method: as §1
A further assay concerns the target BCR (Homo sapiens, UniProt P11274). The protocol:
as §1

The next assay addresses BIKE (Homo sapiens, UniProt Q9NSY1). The protocol:
as §1

Another assay has as its target MARK2 (Homo sapiens, UniProt Q7KZI7). As to the method: as §1
Another assay addresses MAP2K1 (Homo sapiens, UniProt Q02750). As to the method: as §1
A further assay addresses T2, PIP5K2A (Homo sapiens, UniProt P48426).
T2 sequence (P48426 1-406): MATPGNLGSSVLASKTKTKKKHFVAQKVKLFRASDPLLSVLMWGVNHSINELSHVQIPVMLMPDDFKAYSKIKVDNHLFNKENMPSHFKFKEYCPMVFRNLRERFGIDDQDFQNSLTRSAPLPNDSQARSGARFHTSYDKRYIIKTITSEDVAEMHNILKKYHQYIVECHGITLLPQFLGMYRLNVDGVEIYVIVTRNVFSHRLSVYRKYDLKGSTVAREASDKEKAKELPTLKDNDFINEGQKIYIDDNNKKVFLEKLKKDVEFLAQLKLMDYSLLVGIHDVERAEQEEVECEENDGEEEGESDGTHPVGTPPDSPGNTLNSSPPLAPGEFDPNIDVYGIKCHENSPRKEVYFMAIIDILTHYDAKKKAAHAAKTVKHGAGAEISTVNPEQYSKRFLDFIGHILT
The protocol: as §1

In another assay the target is T3, TAO3 (Homo sapiens, UniProt Q9H2K8).
T3 sequence (Q9H2K8 1-898): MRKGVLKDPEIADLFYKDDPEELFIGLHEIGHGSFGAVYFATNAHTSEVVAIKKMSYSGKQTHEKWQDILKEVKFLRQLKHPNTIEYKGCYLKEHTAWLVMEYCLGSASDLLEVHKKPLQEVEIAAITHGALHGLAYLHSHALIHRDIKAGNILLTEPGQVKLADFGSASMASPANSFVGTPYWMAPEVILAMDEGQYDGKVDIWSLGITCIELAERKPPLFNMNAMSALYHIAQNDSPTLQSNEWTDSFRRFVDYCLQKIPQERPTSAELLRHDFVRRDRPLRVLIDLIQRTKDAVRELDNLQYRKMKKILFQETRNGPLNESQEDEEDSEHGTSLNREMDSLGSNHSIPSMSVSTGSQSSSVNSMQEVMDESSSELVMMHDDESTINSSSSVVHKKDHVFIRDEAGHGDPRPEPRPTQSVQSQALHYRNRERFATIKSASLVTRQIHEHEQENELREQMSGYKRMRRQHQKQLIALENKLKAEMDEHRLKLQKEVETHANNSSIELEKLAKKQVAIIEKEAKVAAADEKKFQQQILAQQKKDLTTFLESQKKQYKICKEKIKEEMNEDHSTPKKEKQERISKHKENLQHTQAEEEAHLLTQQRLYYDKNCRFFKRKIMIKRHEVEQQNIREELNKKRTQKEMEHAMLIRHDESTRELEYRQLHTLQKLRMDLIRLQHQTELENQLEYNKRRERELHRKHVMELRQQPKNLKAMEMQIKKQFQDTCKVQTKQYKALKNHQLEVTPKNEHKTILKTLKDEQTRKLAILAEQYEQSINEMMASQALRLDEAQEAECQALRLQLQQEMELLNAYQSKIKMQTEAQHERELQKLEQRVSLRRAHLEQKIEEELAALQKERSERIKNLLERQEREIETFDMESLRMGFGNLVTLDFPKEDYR
As to the method:
as §1

For the next assay, the target named is CDK5 (Homo sapiens, UniProt Q00535). The protocol: as §1
Chain of CDK5 (Q00535 whole entry): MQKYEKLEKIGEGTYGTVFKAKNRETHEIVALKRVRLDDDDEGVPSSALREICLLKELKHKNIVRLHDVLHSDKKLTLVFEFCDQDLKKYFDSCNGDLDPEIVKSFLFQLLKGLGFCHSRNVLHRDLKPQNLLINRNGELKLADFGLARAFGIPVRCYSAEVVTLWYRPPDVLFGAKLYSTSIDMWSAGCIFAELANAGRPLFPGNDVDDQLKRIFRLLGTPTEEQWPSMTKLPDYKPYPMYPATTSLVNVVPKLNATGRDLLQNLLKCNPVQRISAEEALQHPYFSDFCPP

Structures are written as SMILES.

Chain of MAP2K1 (Q02750 whole entry): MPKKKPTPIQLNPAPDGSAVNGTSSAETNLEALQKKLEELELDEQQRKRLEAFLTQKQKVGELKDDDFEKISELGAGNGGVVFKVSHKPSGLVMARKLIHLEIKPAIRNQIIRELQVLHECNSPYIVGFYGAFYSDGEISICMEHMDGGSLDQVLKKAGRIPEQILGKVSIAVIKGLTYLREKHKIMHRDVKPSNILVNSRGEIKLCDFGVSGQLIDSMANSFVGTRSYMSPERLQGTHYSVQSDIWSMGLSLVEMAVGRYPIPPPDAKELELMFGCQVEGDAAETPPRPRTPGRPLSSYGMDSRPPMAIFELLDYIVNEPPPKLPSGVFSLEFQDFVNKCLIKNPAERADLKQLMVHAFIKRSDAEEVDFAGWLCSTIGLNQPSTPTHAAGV
Chain of BIKE (Q9NSY1 whole entry): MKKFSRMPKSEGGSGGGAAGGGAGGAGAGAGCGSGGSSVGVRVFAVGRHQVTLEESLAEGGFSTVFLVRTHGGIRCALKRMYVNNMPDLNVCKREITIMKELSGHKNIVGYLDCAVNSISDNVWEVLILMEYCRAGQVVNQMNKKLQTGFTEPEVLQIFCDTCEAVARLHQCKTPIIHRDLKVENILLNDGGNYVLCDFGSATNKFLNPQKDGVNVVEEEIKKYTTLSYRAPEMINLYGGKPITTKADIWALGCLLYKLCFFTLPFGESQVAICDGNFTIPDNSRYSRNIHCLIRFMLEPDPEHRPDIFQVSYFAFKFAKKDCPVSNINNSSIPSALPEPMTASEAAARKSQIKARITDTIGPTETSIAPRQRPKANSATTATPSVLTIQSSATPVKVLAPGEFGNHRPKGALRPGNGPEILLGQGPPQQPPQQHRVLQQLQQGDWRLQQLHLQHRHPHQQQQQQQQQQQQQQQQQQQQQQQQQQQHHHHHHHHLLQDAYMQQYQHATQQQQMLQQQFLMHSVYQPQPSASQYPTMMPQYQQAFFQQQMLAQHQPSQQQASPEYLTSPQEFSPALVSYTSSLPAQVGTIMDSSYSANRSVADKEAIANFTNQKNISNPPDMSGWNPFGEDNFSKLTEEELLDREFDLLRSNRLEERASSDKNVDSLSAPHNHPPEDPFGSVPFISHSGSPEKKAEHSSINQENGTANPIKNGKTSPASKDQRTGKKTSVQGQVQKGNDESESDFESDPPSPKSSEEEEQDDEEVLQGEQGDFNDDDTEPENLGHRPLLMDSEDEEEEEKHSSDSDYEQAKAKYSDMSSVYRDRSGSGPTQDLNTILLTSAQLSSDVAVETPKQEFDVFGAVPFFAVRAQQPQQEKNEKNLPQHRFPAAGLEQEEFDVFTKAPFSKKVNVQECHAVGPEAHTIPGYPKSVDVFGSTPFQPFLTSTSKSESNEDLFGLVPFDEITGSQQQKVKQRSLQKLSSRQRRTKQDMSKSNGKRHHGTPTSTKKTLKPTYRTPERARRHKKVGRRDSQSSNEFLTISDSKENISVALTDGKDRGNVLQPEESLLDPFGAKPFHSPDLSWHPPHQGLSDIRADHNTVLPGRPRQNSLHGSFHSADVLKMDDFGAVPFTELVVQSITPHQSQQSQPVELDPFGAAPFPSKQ
Chain of CaMK2g (Q13555 whole entry): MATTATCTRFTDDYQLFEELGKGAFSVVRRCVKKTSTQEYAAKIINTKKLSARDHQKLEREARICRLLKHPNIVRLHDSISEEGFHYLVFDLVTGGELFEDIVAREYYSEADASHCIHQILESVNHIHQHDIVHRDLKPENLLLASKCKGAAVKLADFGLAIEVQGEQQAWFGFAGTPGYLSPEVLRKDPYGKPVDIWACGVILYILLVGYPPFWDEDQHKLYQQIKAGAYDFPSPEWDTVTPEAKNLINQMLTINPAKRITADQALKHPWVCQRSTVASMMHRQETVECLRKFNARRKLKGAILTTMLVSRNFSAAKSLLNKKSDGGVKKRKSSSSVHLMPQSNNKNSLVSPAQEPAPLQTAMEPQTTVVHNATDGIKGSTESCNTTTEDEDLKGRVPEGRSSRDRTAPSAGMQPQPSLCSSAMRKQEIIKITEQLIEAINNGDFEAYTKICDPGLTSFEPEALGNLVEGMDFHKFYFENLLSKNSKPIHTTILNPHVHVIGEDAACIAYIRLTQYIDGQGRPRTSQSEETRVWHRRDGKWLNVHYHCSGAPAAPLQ
Chain of MARK2 (Q7KZI7 whole entry): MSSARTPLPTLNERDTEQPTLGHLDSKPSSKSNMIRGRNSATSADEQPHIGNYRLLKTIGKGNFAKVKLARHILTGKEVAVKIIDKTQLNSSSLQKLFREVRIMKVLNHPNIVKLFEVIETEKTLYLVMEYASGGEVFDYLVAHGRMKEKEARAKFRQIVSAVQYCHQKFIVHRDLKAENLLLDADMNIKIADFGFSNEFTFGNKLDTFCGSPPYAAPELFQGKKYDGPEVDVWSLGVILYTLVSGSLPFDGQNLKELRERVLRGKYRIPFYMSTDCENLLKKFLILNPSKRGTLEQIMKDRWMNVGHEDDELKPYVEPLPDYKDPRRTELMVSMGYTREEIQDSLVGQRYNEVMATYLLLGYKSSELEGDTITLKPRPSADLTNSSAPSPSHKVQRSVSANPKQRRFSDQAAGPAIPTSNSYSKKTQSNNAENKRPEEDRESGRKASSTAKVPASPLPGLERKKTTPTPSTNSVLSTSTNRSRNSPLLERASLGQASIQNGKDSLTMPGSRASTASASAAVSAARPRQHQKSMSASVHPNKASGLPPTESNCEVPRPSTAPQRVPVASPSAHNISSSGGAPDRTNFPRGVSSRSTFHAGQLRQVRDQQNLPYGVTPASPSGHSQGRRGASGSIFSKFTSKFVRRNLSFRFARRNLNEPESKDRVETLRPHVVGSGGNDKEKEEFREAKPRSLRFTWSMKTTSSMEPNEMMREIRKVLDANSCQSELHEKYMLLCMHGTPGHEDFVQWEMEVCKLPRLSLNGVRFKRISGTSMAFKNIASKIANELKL
Chain of BCR (P11274 whole entry): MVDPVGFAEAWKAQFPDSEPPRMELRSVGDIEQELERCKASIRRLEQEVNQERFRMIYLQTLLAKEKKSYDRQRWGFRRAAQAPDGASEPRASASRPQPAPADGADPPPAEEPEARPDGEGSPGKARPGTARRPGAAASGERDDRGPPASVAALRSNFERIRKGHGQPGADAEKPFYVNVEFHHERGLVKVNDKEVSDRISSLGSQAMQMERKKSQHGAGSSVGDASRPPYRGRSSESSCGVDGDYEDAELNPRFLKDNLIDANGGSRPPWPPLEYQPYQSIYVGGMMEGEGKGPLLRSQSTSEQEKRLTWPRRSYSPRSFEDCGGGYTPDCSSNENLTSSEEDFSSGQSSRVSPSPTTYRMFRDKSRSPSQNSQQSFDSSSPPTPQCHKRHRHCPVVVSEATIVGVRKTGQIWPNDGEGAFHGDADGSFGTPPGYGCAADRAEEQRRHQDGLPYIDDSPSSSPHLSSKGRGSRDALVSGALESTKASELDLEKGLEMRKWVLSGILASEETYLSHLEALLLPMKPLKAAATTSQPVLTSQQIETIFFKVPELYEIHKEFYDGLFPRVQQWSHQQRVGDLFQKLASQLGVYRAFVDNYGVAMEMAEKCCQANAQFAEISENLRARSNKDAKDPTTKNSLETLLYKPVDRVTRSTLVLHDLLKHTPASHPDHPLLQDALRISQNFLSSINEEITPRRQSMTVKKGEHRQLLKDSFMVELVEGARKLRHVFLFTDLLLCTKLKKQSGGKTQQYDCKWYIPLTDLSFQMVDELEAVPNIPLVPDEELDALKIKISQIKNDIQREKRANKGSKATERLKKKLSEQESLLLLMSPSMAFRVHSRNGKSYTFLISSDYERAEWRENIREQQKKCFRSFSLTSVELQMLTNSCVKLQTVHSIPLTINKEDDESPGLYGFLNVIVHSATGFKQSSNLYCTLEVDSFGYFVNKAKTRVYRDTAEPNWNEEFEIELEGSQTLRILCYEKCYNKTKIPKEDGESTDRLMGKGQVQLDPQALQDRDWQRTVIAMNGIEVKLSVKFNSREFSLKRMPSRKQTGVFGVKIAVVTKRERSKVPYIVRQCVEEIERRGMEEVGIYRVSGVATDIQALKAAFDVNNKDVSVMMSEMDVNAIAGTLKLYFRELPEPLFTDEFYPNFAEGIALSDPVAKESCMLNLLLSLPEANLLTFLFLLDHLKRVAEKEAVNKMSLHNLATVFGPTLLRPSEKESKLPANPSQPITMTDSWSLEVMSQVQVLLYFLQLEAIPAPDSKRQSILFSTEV

`CS(=O)(=O)Nc1ccccc1Nc1nc(Nc2cccc(OCCN)c2)ncc1Cl` [CZC31326, N-(2-(2-(3-(2-aminoethoxy)phenylamino)-5-chloropyrimidin-4-ylamino)phenyl)methanesulfonamide]: the inhibition at 10 µM at MAP3K2 stood at 93.9%; on CaMK2g it was 84.8%; at BCR, 90.2%; at BIKE, 92.9%; at MARK2, 93.7%; on MAP2K1, 83.7%. Further, the inhibition at 10 µM at PIP5K2A worked out at 95%; on TAO3 it was 94.4%; at CDK5, 92.6%.

A word on the inhibition: it is how much of the control response was suppressed. Higher therefore signals a response far below the control.
